Test results from patent US9096593B2, “Compounds and methods for kinase modulation, and indications therefor” (Plexxikon Inc., priority 2009, dated 2015).

Legend:
[1] = molecular target: Fms kinase (Homo sapiens (Human), UniProt P07333); test: Fms kinase biochemical activity assay (AlphaScreen, biotin-(E4Y)10 phosphorylation); conditions: 100 μM ATP; read-out: Biochemical (IC50 μM) Fms
Procedure: In one assay the biochemical activity IC50 values are determined with respect to inhibition of Fms kinase activity, where inhibition of phosphorylation of a peptide substrate is measured as a function of compound concentration. Compounds to be tested, dissolved in DMSO (1 μL), are added to a white 384-well plate (Costar #3705). Working stocks of Fms kinase (Invitrogen #PV3249), biotin-(E4Y)10 substrate (Upstate Biotech, Cat#12-440), and ATP (Sigma, Cat#A-3377) are prepared in 25 mM Hepes pH 7.5, 0.5 mM MgCl2, 2 mM MnCl2, 2 mM DTT, 0.01% BSA, and 0.01% Tween-20. All components are added to the 384-well plate for a final concentration of 1 ng/well Fms, 30 nM biotin-(E4Y)10 (Upstate Biotechnology) and 100 μM ATP in a volume of 20 μL. Each sample is at 5% DMSO. The plate is then incubated for 20 minutes at 30° C. Just before use, working stocks of donor and acceptor beads from the AlphaScreen PY20 Detection Kit (PerkinElmer, Cat#676601M) are prepared in 25 mM Hepes pH 7.5, pH 7.4, 100 mM EDTA, 0.01% BSA. To stop the reaction, the plate is uncovered in the dark and 5 μL of Donor Beads solution (Streptavidin beads) is added to each well. The plate is incubated at room temperature for 20 minutes. Five microliters of Acceptor Beads solution (PY20 coated beads) are then added to each well. The final concentration of each bead is 10 μg/mL. The plates are incubated at room temperature for 60 minutes. Fluorescence signal is recorded on the Envision reader. […] The signal vs. compound concentration is used to determine the IC50.

[2] = molecular target: Flt-3 kinase (Homo sapiens (Human), UniProt P36888); test: Flt-3 kinase biochemical activity assay (AlphaScreen, biotin-(E4Y)10 phosphorylation); conditions: 100 μM ATP
Flt-3 kinase, sequence (P36888 27-993): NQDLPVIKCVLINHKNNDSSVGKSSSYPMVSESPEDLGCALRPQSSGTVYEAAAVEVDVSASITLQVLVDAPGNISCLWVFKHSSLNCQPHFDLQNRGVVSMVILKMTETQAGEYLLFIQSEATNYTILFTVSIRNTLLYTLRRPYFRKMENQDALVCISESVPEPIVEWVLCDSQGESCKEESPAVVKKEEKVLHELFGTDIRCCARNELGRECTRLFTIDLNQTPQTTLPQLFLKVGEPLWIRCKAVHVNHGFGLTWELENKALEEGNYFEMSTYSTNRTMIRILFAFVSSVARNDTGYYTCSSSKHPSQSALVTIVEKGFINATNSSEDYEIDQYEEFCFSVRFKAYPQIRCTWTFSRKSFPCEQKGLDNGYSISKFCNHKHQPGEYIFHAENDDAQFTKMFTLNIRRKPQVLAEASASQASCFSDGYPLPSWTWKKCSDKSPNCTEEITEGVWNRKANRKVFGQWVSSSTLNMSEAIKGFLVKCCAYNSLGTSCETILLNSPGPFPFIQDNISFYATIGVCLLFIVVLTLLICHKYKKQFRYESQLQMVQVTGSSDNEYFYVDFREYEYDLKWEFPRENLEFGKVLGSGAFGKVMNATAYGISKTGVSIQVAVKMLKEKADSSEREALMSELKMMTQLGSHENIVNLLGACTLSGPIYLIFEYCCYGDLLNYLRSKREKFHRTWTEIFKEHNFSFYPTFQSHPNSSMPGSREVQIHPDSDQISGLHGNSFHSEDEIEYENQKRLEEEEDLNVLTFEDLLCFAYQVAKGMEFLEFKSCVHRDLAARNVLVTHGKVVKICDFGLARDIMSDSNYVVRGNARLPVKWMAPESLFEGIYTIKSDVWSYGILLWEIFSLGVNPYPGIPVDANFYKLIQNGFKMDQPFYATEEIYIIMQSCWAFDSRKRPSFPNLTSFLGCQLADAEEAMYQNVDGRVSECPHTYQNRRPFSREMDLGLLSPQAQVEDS
Procedure: In one assay the biochemical activity IC50 values are determined with respect to inhibition of Flt-3 kinase activity, where inhibition of phosphorylation of a peptide substrate is measured as a function of compound concentration. Compounds to be tested, dissolved in DMSO (1 μL), are added to a white 384-well plate (Costar #3705). Working stocks of Flt-3 kinase (Invitrogen), biotin-(E4Y)10 substrate (Upstate Biotech, Cat#12-440), and ATP (Sigma, Cat#A-3377) are prepared in 25 mM Hepes pH 7.5, 5 mM MgCl2, 5 mM MnCl2, 1 mM DTT, and 0.01% Tween-20. All components are added to the 384-well plate for a final concentration of 1 ng/well Flt-3, 30 nM biotin-(E4Y)10 and 100 μM ATP in a volume of 20 μL. Each sample is at 5% DMSO. The plate is then incubated for 1 hour at room temperature. Just before use, working stocks of donor and acceptor beads from the AlphaScreen PY20 Detection Kit (PerkinElmer, Cat#676601M) are prepared in 25 mM Hepes pH 7.5, pH 7.4, 100 mM EDTA. 0.3% BSA. To stop the reaction, the plate is uncovered in the dark and 5 μL of Donor Beads solution (Streptavidin beads) is added to each well. The plate is incubated at room temperature for 20 minutes. Five microliters of Acceptor Beads solution (PY20 coated beads) are then added to each well. The final concentration of each bead is 10 μg/mL. The plates are incubated at room temperature for 60 minutes. Fluorescence signal is recorded on the Envision reader. Phosphorylated substrate results in binding of the PY20 antibody and association of the donor and acceptor beads such that signal correlates with kinase activity. The signal vs. compound concentration is used to determine the IC50.

[3] = molecular target: BCR-FMS/BaF3 cells (Homo sapiens, UniProt P07333); test: BCR-FMS/BaF3 cell proliferation assay (ATPlite); type: cell-based; conditions: read-out: Cell based (IC50 μM) BCR/BaF3 (Fms); BCR-FMS/BaF3 cells, 3 days
BCR-FMS/BaF3 cells, sequence (P07333 20-972 limits assumed, change not shown): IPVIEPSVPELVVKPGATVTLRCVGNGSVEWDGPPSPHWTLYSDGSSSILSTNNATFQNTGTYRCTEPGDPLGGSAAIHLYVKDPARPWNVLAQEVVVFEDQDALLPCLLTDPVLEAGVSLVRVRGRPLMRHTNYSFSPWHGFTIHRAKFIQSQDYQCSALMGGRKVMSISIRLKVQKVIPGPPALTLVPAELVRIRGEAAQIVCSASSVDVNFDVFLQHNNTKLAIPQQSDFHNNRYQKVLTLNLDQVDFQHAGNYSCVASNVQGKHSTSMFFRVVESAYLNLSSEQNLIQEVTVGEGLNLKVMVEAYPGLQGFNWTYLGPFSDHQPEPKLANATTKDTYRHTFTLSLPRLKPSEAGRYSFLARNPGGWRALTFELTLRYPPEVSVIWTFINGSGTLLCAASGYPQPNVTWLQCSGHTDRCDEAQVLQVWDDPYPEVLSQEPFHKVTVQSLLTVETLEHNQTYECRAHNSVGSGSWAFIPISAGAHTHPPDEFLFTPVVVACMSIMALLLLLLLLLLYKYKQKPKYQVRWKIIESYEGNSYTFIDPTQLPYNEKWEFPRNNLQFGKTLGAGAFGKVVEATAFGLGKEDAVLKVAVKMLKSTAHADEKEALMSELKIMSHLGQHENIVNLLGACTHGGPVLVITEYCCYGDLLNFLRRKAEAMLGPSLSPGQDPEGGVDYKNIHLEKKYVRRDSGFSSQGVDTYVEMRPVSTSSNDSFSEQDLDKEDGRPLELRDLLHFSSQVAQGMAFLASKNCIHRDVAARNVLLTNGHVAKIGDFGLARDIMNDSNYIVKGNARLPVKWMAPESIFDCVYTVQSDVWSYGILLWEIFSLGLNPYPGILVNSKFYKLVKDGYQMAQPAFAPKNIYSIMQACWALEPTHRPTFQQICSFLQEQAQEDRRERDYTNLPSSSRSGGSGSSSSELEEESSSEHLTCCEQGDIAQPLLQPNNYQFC
Procedure: Compounds are assessed in a variety of cell based assays. For example BCR-FMS/BaF3, BCR-KIT/BaF3, M-NFS-60, M-07e, and BAC1.2F5 cell proliferation assays are used to assess inhibitory activity of Fms or Kit and MV-4-11 cell proliferation assay is used to assess inhibitory activity in Flt-3. […] On day 1, cells are counted, then centrifuged in a conical tube for 5 minutes at 1000 rpm. The supernatant is removed and cells are re-suspended as follows: • BCR-FMS/BaF3 and BCR-KIT/BaF3: resuspend in growth media+1 mg/mL G418 (without WEHI/IL-3) to 2×10^5 cells/mL. • M-NFS-60: resuspend in growth media +62 ng/mL murine M-CSF to 5×10^5 cells/mL. • M-07e: resuspend in growth media +200 ng/mL human SCF to 5×10^5 cells/mL. • BAC1.2F5: resuspend in growth media +36 ng/mL murine M-CSF to 1.4×10^5 cells/mL. • MV-4-11: resuspend in growth media +10% FBS to 5×10^5 cells/mL. […] On day 2, compound at a maximum concentration of 5 mM is serially diluted 1:3 for a total of 8 point titration with DMSO as a control. A 1 μL aliquot of each dilution point is added to 249 μL growth media and 50 μL is added to a well containing cells, providing 10 μM compound for the maximum concentration point. The cells are incubated for 3 days at 37° C. in 5% CO2. […] ATPlite is added to each well as follows: • BCR-FMS/BaF3 and BCR-KIT/BaF3: 25 μL per well. • M-NFS-60: 25 μL per well. • M-07c: 40 μL per well. • BAC1.2F5: 50 μL per well. • MV-4-11: 40 μL per well. The cells are incubated at room temperature for 10 minutes, then luminescence is read on Safire reader. The measured luminescence correlates directly with cell number, such that the reading as a function of compound concentration is used to determine the IC50 value.

Measured: IC50

Fms kinase, sequence (P07333 20-972): as the sequence (P07333 20-972 limits assumed, change not shown) above

FC(F)(F)c1cnc2[nH]cc(Cc3ccc(NCc4ccc(C(F)(F)F)nc4)nc3)c2c1 [Compound P-1644, (6-Trifluoromethyl-pyridin-3-ylmethyl)-[5-(5-trifluoromethyl-1H-pyrrolo[2,3-b]pyridin-3-ylmethyl)-pyridin-2-yl]-amine]
< 0.1 µM: all assays above

COc1ncc(CNc2ccc(Cc3c[nH]c4ncc(C(F)(F)F)cc34)c(F)n2)cc1F [Compound P-1646, (5-Fluoro-6-methoxy-pyridin-3-ylmethyl)-[6-fluoro-5-(5-trifluoromethyl-1H-pyrrolo[2,3-b]pyridin-3-ylmethyl)-pyridin-2-yl]-amine]
< 0.1 µM: all assays above

Fc1cc(CNc2ncc(Cc3c[nH]c4ncc(Cl)cc34)cn2)cc(C(F)(F)F)c1 [Compound P-2009, [5-(5-Chloro-1H-pyrrolo[2,3-b]pyridin-3-ylmethyl)-pyrimidin-2-yl]-(3-fluoro-5-trifluoromethyl-benzyl)-amine]
< 0.1 µM: all assays above
